28 molecules from patent US8846704B2, “Thiopyrimidine-based compounds and uses thereof” (YM Biosciences Austraila Pty Ltd, priority 2007, dated 2014) can be followed below.

Assay [1] deals with T1, Blk(m) (Mus musculus, UniProt P16277).
T1 construct: purchased Upstate Biotechnology (Dundee, UK), KinaseProfiler service
As to the kind of experiment: Upstate KinaseProfiler enzyme assay, Blk. The class given is biochemical. The note with it: 500 nM compound; read-out: Percent inhibition at 500 nM Blk(m). The method, then:
(§1) Further enzyme assays were conducted at Upstate Biotechnology (Dundee, UK) in the KinaseProfiler™ Assay system.
(§2) The general protocol is as follows. All kinases are pre-diluted to a 10× working concentration prior to addition into the assay. The composition of the dilution buffer for the kinases is 20 mM MOPS pH 7.0, 1 mM EDTA, 0.1% β-mercaptoethanol, 0.01% Brij-35, 5% glycerol, 1 mg/ml BSA. All substrates are dissolved and diluted to working stocks in de-ionised water.

Assay [2] addresses T2, Bmx(h) (Homo sapiens, UniProt P51813).
T2 construct: purchased Upstate Biotechnology (Dundee, UK), KinaseProfiler service
T2 sequence (P51813 1-675): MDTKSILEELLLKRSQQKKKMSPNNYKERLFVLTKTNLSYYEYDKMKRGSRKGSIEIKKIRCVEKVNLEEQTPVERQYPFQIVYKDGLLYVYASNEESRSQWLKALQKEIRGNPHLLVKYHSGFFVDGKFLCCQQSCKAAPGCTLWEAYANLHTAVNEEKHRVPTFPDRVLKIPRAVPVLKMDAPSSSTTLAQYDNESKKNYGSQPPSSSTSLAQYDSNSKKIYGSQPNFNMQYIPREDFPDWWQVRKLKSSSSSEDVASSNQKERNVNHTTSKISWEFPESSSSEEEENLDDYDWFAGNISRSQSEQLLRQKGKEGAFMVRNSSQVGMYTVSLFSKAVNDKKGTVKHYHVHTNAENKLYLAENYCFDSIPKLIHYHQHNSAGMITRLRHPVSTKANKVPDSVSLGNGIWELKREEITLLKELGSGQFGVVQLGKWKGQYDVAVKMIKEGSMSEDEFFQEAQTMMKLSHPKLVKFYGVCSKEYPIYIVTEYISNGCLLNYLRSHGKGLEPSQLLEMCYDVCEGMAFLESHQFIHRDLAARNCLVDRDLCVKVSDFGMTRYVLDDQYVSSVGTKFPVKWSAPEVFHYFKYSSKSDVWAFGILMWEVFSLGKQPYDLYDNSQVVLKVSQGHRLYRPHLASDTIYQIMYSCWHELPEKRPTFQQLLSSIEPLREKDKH
As to the kind of experiment: Upstate KinaseProfiler enzyme assay, Bmx. The assay is classed as biochemical. The note with it: 500 nM compound; read-out: Percent inhibition at 500 nM Bmx(h). As for the experimental part: as §1, §2

Structures are written as SMILES.

T1 sequence (P16277 whole entry): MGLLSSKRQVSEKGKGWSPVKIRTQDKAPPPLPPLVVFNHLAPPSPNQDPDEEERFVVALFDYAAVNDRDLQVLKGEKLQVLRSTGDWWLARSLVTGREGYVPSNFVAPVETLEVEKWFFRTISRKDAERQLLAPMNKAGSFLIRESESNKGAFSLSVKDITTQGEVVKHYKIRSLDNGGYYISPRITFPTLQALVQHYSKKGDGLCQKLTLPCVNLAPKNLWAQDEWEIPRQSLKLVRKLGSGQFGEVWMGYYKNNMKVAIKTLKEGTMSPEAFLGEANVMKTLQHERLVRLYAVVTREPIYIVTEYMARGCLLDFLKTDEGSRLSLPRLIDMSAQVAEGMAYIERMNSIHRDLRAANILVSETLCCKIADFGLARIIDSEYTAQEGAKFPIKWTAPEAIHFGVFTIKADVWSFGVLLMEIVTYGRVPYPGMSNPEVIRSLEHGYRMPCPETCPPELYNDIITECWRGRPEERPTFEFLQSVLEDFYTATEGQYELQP

Usually inhibition stands for the share of the control response that was lost under treatment. For the molecule `C=CC(=O)Nc1cccc(Sc2ccnc(Nc3ccc(N4CCOCC4)cc3)n2)c1` [Compound 23, N-(3-(2-(4-morpholinophenylamino)pyrimidin-4-ylthio)phenyl)acrylamide], the inhibition at 0.5 µM is 97% in assay [1] and 100% in assay [2].

With `C=CC(=O)Nc1ccc(Sc2ccnc(Nc3ccc(N4CCOCC4)cc3)n2)cc1` [Compound 25, N-(4-(2-(4-morpholinophenylamino)pyrimidin-4-ylthio)phenyl)acrylamide], the inhibition at 0.5 µM in assay [1] came out at 71%; in assay [2] it was 97%.

On to `C=CC(=O)Nc1cccc(Nc2nccc(Sc3ccc(OC)cc3)n2)c1` [Compound 42, N-(3-(4-(4-methoxyphenylthio)pyrimidin-2-ylao)phenyl)acrylamide], for which the inhibition at 0.5 µM in assay [1] is 59%; in assay [2], 100%.

As to `C=CC(=O)Nc1ccc(Sc2ccnc(Nc3cccc(N4CCOCC4)c3)n2)cc1` [Compound 77, N-(4-(2-(3-morpholinophenylao)pyrimidin-4-ylthio)phenyl)acrylamide], the inhibition at 0.5 µM in assay [1] and in assay [2] was 100% each time.

For `C=CC(=O)Nc1cccc(Sc2ccnc(Nc3cccc(N4CCOCC4)c3)n2)c1` [Compound 110, N-(3-(2-(3-morpholinophenylao)pyrimidin-4-ylthio)phenyl)acrylamide], the inhibition at 0.5 µM in assay [1] and in assay [2] was 100% in each case.

`C=CC(=O)NCc1ccc(Sc2ccnc(Nc3ccc(N4CCOCC4)cc3)n2)cc1` [Compound 111, N-(4-(2-(4-morpholinophenylamino)pyrimidin-4-ylthio)benzyl)acrylamide]: the inhibition at 0.5 µM in assay [1] and in assay [2] was 100% each time.

`C=CC(=O)NCc1cccc(Sc2ccnc(Nc3ccc(N4CCOCC4)cc3)n2)c1` [Compound 112, N-(3-(2-(4-morpholinophenylamino)pyrimidin-4-ylthio)benzyl)acrylamide]: the inhibition at 0.5 µM in assay [1] and in assay [2] was 100% in each case.

With `C=CC(=O)Nc1ccc(Sc2ccnc(Nc3ccc(N4CCOCC4)cc3)n2)cc1OC` [Compound 123, N-(2-methoxy-4-(2-(4-morpholinophenylao)pyrimidin-4-ylthio)phenyl)acrylamide], the inhibition at 0.5 µM in assay [1] and in assay [2] was 100% throughout.

Take `N#Cc1nnnn1Cc1ccc(Sc2ccnc(Nc3ccc(N4CCOCC4)cc3)n2)cc1` [Compound 155, 1-(4-(2-(4-morpholinophenylao)pyrimidin-4-ylthio)benzyl)-1H-tetrazole-5-carbonitrile]: the inhibition at 0.5 µM in assay [1] was 40%; in assay [2] it was 86%.

Regarding `N#Cc1nnn(Cc2ccc(Sc3ccnc(Nc4ccc(N5CCOCC5)cc4)n3)cc2)n1` [Compound 156, 2-(4-(2-(4-morpholinophenylao)pyrimidin-4-ylthio)benzyl)-2H-tetrazole-5-carbonitrile], the values for the inhibition at 0.5 µM in assay [1] and in assay [2] were 41% and 83%, respectively.

As to `Cc1cc(N)ccc1Sc1nc(Nc2ccc(N3CCOCC3)cc2)ncc1C` [Compound 162, 4-(4-ao-2-methylphenylthio)-5-methyl-N-(4-morpholinophenyl)pyrimidin-2-ae], the inhibition at 0.5 µM in assay [1] was 50%; in assay [2], 55%.

Turning to `C=CC(=O)Nc1ccc(Sc2nc(Nc3ccc(N4CCOCC4)cc3)ncc2C)c(C)c1` [Compound 163, N-(3-methyl-4-(5-methyl-2-(4-morpholinophenylao)pyrimidin-4-ylthio)phenyl)acrylamide], the inhibition at 0.5 µM was determined as 95% in assay [1] and 85% in assay [2].

With `Cc1cnc(Nc2ccc(N3CCOCC3)cc2)nc1Sc1c(C)cc(N)cc1C` [Compound 165, 4-(4-ao-2,6-dimethylphenylthio)-5-methyl-N-(4-morpholinophenyl)pyrimidin-2-ae], the figures for the inhibition at 0.5 µM in assay [1] and in assay [2] were 0% and 40%, respectively.

Take `C=CC(=O)N(C)c1ccc(Sc2nc(Nc3ccc(N4CCOCC4)cc3)ncc2C)cc1` [Compound 173, N-methyl-N-(4-(5-methyl-2-(4-morpholinophenylao)pyrimidin-4-ylthio)phenyl)acrylamide]: the inhibition at 0.5 µM in assay [1] was 93%; in assay [2] it was 94%.

With `N#Cc1ncn(Cc2ccc(Sc3ccnc(Nc4ccc(N5CCOCC5)cc4)n3)cc2)c1C#N` [Compound 201, 1-(4-(2-(4-morpholinophenylao)pyrimidin-4-ylthio)benzyl)-1H-imidazole-4,5-dicarbonitrile], the inhibition at 0.5 µM in assay [1] and in assay [2] was 100% each time.

In the case of `Cc1cnc(Nc2ccc(N3CCOCC3)cc2)nc1Sc1ccc(N2C(=O)CSCC2=O)cc1` [Compound 231, 4-(4-(5-methyl-2-(4-morpholinophenylao)pyrimidin-4-ylthio)phenyl)thiomorpholine-3,5-dione], the values for the inhibition at 0.5 µM in assay [1] and in assay [2] were 82% and 99%, respectively.

`CC#CC(=O)Nc1ccc(Sc2ccnc(Nc3cccc(N4CCOCC4)c3)n2)cc1` [Compound 233, N-(4-(2-(3-morpholinophenylao)pyrimidin-4-ylthio)phenyl)but-2-ynamide]: the inhibition at 0.5 µM in assay [1] was 85%; in assay [2], 89%.

For `C=CC(=O)Nc1ccc(Sc2nc(Nc3cccc(OC)c3)ncc2C)cc1` [Compound 235, N-(4-(2-(3-methoxyphenylao)-5-methylpyrimidin-4-ylthio)phenyl)acrylamide], the inhibition at 0.5 µM in assay [1] was determined as 86%; in assay [2], 79%.

As to `C=CC(=O)Nc1ccc(Sc2nc(Nc3cccc(N4CCOCC4)c3)ncc2C)cc1` [Compound 237, N-(4-(5-methyl-2-(3-morpholinophenylao)pyrimidin-4-ylthio)phenyl)acrylamide], the inhibition at 0.5 µM in assay [1] was determined as 96%; in assay [2], 92%.

With `C=CC(=O)Nc1ccc(Sc2ccnc(Nc3ccc(N4CCN(C)CC4)cc3)n2)cc1` [Compound 238, N-(4-(2-(4-(4-methylpiperazin-1-yl)phenylao)pyrimidin-4-ylthio)phenyl)acrylamide], the inhibition at 0.5 µM in assay [1] came out at 99%; in assay [2], 90%.

As to `C=CC(=O)Nc1ccc(Sc2nc(Nc3ccc(N4CCN(C)CC4)cc3)ncc2C)cc1` [Compound 239, N-(4-(5-methyl-2-(4-(4-methylpiperazin-1-yl)phenylao)pyrimidin-4-ylthio)phenyl)acrylamide], the inhibition at 0.5 µM in assay [1] and in assay [2] was 99% each time.

With `C=CC(=O)Nc1ccc(Sc2nc(Nc3ccc(OC)c(OC)c3)ncc2C)cc1` [Compound 241, N-(4-(2-(3,4-dimethoxyphenylao)-5-methylpyrimidin-4-ylthio)phenyl)acrylamide], the inhibition at 0.5 µM came out at 98% in assay [1] and 92% in assay [2].

In the case of `C=CC(=O)Nc1ccc(Sc2nc(Nc3cccc(N4CCN(C)CC4)c3)ncc2C)cc1` [Compound 243, N-(4-(5-methyl-2-(3-(4-methylpiperazin-1-yl)phenylao)pyrimidin-4-ylthio)phenyl)acrylamide], the inhibition at 0.5 µM amounted to 99% in assay [1] and 96% in assay [2].

Consider `C=CC(=O)Nc1ccc(Sc2nc(Nc3ccc(C4CCN(C)CC4)cc3)ncc2C)cc1` [Compound 246, N-(4-(5-methyl-2-(4-(1-methylpiperidin-4-yl)phenylao)pyrimidin-4-ylthio)phenyl)acrylamide], for which the inhibition at 0.5 µM in assay [1] is 97%; in assay [2], 98%.

Consider `C=CC(=O)Nc1ccc(Sc2nc(Nc3ccc(N4CCOCC4)c(OC)c3)ncc2C)cc1` [Compound 248, N-(4-(2-(3-methoxy-4-morpholinophenylao)-5-methylpyrimidin-4-ylthio)phenyl)acrylamide], for which the results for the inhibition at 0.5 µM in assay [1] and in assay [2] were 92% and 91%, respectively.

`C=CC(=O)Nc1ccc(Sc2nc(Nc3cccc(N4CCOCC4)c3)ncc2F)cc1` [Compound 267, N-(4-(5-fluoro-2-(3-morpholinophenylao)pyrimidin-4-ylthio)phenyl)acrylamide]: the inhibition at 0.5 µM worked out at 96% in assay [1] and 89% in assay [2].

For the molecule `C=CC(=O)Nc1ccc(Sc2nc(Nc3cccc(CO)c3)ncc2C)cc1` [Compound 280, N-(4-(2-(3-(hydroxymethyl)phenylao)-5-methylpyrimidin-4-ylthio)phenyl)acrylamide], the inhibition at 0.5 µM in assay [1] stood at 99%; in assay [2], 98%.

For `C=CC(=O)Nc1ccc(Sc2nc(Nc3ccc(NS(C)(=O)=O)cc3)ncc2C)cc1` [Compound 285, N-(4-(5-methyl-2-(4-(methylsulfonamido)phenylao)pyrimidin-4-ylthio)phenyl)acrylamide], the inhibition at 0.5 µM was found to be 97% in assay [1] and 98% in assay [2].
